Assay results: ChEMBL document CHEMBL4270599, “Synthesis of a 3'-C-ethynyl-β-d-ribofuranose purine nucleoside library: Discovery of C7-deazapurine analogs as potent antiproliferative nucleosides” (Eur J Med Chem, 2018)

Legend:
Format in all cases: functional
SNB-19 = assay: Growth inhibition of human SNB19 cells assessed as cell growth at 10^-4 M incubated for 48 hrs by sulforhodamine B assay relative to control; conditions: SNB-19, 48 h, read-out: Activity
MDA-MB-435 = assay: Growth inhibition of human MDA-MB-435 cells assessed as cell growth at 10^-4 M incubated for 48 hrs by sulforhodamine B assay relative to control; conditions: MDA-MB-435, 48 h, read-out: Activity
MDA-MB-468 [1] = assay: Growth inhibition of human MDA-MB-468 cells assessed as cell growth at 10^-6 M incubated for 48 hrs by sulforhodamine B assay relative to control; conditions: MDA-MB-468, 48 h, read-out: Activity
SK-MEL-2 [2] = assay: Growth inhibition of human SK-MEL-2 cells assessed as cell growth at 10^-5 M incubated for 48 hrs by sulforhodamine B assay relative to control; conditions: SK-MEL-2, 48 h, read-out: Activity
OVCAR-8 = assay: Growth inhibition of human OVCAR8 cells assessed as cell growth at 10^-5 M incubated for 48 hrs by sulforhodamine B assay relative to control; conditions: OVCAR-8, 48 h, read-out: Activity
A498 [3] = assay: Growth inhibition of human A498 cells assessed as cell growth at 10^-4 M incubated for 48 hrs by sulforhodamine B assay relative to control; conditions: A498, 48 h, read-out: Activity
SK-OV-3 = assay: Growth inhibition of human SKOV3 cells assessed as cell growth at 10^-6 M incubated for 48 hrs by sulforhodamine B assay relative to control; conditions: SK-OV-3, 48 h, read-out: Activity
NCI-H522 = assay: Growth inhibition of human NCI-H522 cells assessed as cell growth at 10^-6 M incubated for 48 hrs by sulforhodamine B assay relative to control; conditions: NCI-H522, 48 h, read-out: Activity
A549 = assay: Growth inhibition of human A549/ATCC cells assessed as cell growth at 10^-5 M incubated for 48 hrs by sulforhodamine B assay relative to control; conditions: A549, 48 h, read-out: Activity
Hs-578T = assay: Growth inhibition of human Hs 578T cells assessed as cell growth at 10^-4 M incubated for 48 hrs by sulforhodamine B assay relative to control; conditions: read-out: Activity
786-0 [4] = assay: Growth inhibition of human 786-0 cells assessed as cell growth at 10^-5 M incubated for 48 hrs by sulforhodamine B assay relative to control; conditions: 786-0, 48 h, read-out: Activity
T47D = assay: Growth inhibition of human T47D cells assessed as cell growth at 10^-6 M incubated for 48 hrs by sulforhodamine B assay relative to control; conditions: read-out: Activity
A498 [5] = assay: Growth inhibition of human A498 cells assessed as cell growth at 10^-5 M incubated for 48 hrs by sulforhodamine B assay relative to control; conditions: A498, 48 h, read-out: Activity
MDA-MB-468 [6] = assay: Growth inhibition of human MDA-MB-468 cells assessed as cell growth at 10^-4 M incubated for 48 hrs by sulforhodamine B assay relative to control; conditions: MDA-MB-468, 48 h, read-out: Activity
OVCAR-3 = assay: Growth inhibition of human OVCAR3 cells assessed as cell growth at 10^-5 M incubated for 48 hrs by sulforhodamine B assay relative to control; conditions: OVCAR-3, 48 h, read-out: Activity
HCC 2998 [7] = assay: Growth inhibition of human HCC2998 cells assessed as cell growth at 10^-4 M incubated for 48 hrs by sulforhodamine B assay relative to control; conditions: HCC 2998, 48 h, read-out: Activity
LOX IMVI = assay: Growth inhibition of human LOXIMVI cells assessed as cell growth at 10^-4 M incubated for 48 hrs by sulforhodamine B assay relative to control; conditions: read-out: Activity
Malme-3M = assay: Growth inhibition of human MALME-3M cells assessed as cell growth at 10^-4 M incubated for 48 hrs by sulforhodamine B assay relative to control; conditions: read-out: Activity
HOP-62 [8] = assay: Growth inhibition of human HOP62 cells assessed as cell growth at 10^-5 M incubated for 48 hrs by sulforhodamine B assay relative to control; conditions: HOP-62, 48 h, read-out: Activity
UO-31 = assay: Growth inhibition of human UO31 cells assessed as cell growth at 10^-5 M incubated for 48 hrs by sulforhodamine B assay relative to control; conditions: UO-31, 48 h, read-out: Activity
RXF 393 [9] = assay: Growth inhibition of human RXF393 cells assessed as cell growth at 10^-5 M incubated for 48 hrs by sulforhodamine B assay relative to control; conditions: RXF 393, 48 h, read-out: Activity
NCI-H460 = assay: Growth inhibition of human NCI-H460 cells assessed as cell growth at 10^-4 M incubated for 48 hrs by sulforhodamine B assay relative to control; conditions: NCI-H460, 48 h, read-out: Activity
HOP-62 [10] = assay: Growth inhibition of human HOP62 cells assessed as cell growth at 10^-4 M incubated for 48 hrs by sulforhodamine B assay relative to control; conditions: HOP-62, 48 h, read-out: Activity
SF-539 = assay: Growth inhibition of human SF539 cells assessed as cell growth at 10^-5 M incubated for 48 hrs by sulforhodamine B assay relative to control; conditions: SF-539, 48 h, read-out: Activity
RPMI-8226 = assay: Growth inhibition of human RPMI8226 cells assessed as cell growth at 10^-5 M incubated for 48 hrs by sulforhodamine B assay relative to control; conditions: RPMI-8226, 48 h, read-out: Activity
786-0 [11] = assay: Growth inhibition of human 786-0 cells assessed as cell growth at 10^-4 M incubated for 48 hrs by sulforhodamine B assay relative to control; conditions: 786-0, 48 h, read-out: Activity
NCI-H322M = assay: Growth inhibition of human NCI-H322M cells assessed as cell growth at 10^-4 M incubated for 48 hrs by sulforhodamine B assay relative to control; conditions: read-out: Activity
HL-60(TB) = assay: Growth inhibition of human HL-60(TB) cells assessed as cell growth at 10^-4 M incubated for 48 hrs by sulforhodamine B assay relative to control; conditions: HL-60, 48 h, read-out: Activity
SK-MEL-2 [12] = assay: Growth inhibition of human SK-MEL-2 cells assessed as cell growth at 10^-4 M incubated for 48 hrs by sulforhodamine B assay relative to control; conditions: SK-MEL-2, 48 h, read-out: Activity
EKVX = assay: Growth inhibition of human EKVX cells assessed as cell growth at 10^-4 M incubated for 48 hrs by sulforhodamine B assay relative to control; conditions: read-out: Activity
IGROV-1 = assay: Growth inhibition of human IGROV1 cells assessed as cell growth at 10^-6 M incubated for 48 hrs by sulforhodamine B assay relative to control; conditions: IGROV-1, 48 h, read-out: Activity
RXF 393 [13] = assay: Growth inhibition of human RXF393 cells assessed as cell growth at 10^-4 M incubated for 48 hrs by sulforhodamine B assay relative to control; conditions: RXF 393, 48 h, read-out: Activity
UACC-62 = assay: Growth inhibition of human UACC62 cells assessed as cell growth at 10^-4 M incubated for 48 hrs by sulforhodamine B assay relative to control; conditions: UACC-62, 48 h, read-out: Activity
HCC 2998 [14] = assay: Growth inhibition of human HCC2998 cells assessed as cell growth at 10^-5 M incubated for 48 hrs by sulforhodamine B assay relative to control; conditions: HCC 2998, 48 h, read-out: Activity

Row | SMILES | growth at 100 µM (SNB-19) [%] | growth at 100 µM (MDA-MB-435) [%] | growth at 1 µM (MDA-MB-468 [1]) [%] | growth at 10 µM (SK-MEL-2 [2]) [%] | growth at 10 µM (OVCAR-8) [%] | growth at 100 µM (A498 [3]) [%] | growth at 1 µM (SK-OV-3) [%] | growth at 1 µM (NCI-H522) [%] | growth at 10 µM (A549) [%] | growth at 100 µM (Hs-578T) [%] | growth at 10 µM (786-0 [4]) [%] | growth at 1 µM (T47D) [%] | growth at 10 µM (A498 [5]) [%] | growth at 100 µM (MDA-MB-468 [6]) [%] | growth at 10 µM (OVCAR-3) [%] | growth at 100 µM (HCC 2998 [7]) [%] | growth at 100 µM (LOX IMVI) [%] | growth at 100 µM (Malme-3M) [%] | growth at 10 µM (HOP-62 [8]) [%] | growth at 10 µM (UO-31) [%] | further results
1 | C#C[C@@]1(O)[C@@H](CO)O[C@@H](n2ccc3c(N)ncnc32)[C@@H]1O | -32 | -76 | 64 | -15 | -32 | -47 | 52 | 29 | 4 | 2 | -18 | 30 | -60 | -62 | 3 | -78 | -92 | -76 | -9 | -55 | growth at 10 µM (RXF 393 [9]): -45%; growth at 100 µM (NCI-H460): -13%; growth at 100 µM (HOP-62 [10]): -10%; growth at 10 µM (SF-539): -48%; growth at 10 µM (RPMI-8226): 7%; growth at 100 µM (786-0 [11]): -95%; growth at 100 µM (NCI-H322M): -65%; growth at 100 µM (HL-60(TB)): -38%; growth at 100 µM (SK-MEL-2 [12]): -34%; growth at 100 µM (EKVX): -26%; growth at 1 µM (IGROV-1): 63%; growth at 100 µM (RXF 393 [13]): -92%; growth at 100 µM (UACC-62): -65%; growth at 10 µM (HCC 2998 [14]): -76%
2 | C#C[C@@]1(O)[C@@H](CO)O[C@@H](n2cc(F)c3c(N)ncnc32)[C@@H]1O | -45 | -63 | 13 | -26 | -12 | -75 | 12 | -2 | -26 | 8 | -52 | -10 | -77 | -68 | 5 | -71 | -90 | -47 | -4 | -36 | growth at 10 µM (RXF 393 [9]): -46%; growth at 100 µM (NCI-H460): -38%; growth at 100 µM (HOP-62 [10]): -15%; growth at 10 µM (SF-539): -23%; growth at 10 µM (RPMI-8226): -2%; growth at 100 µM (786-0 [11]): -36%; growth at 100 µM (NCI-H322M): -30%; growth at 100 µM (HL-60(TB)): -32%; growth at 100 µM (SK-MEL-2 [12]): -36%; growth at 100 µM (EKVX): -10%; growth at 1 µM (IGROV-1): 6%; growth at 100 µM (RXF 393 [13]): -49%; growth at 100 µM (UACC-62): -78%; growth at 10 µM (HCC 2998 [14]): -45%
